Experimental data from article PMC9954146, “Anti-Leukaemic Activity of Rilpivirine Is Mediated by Aurora A Kinase Inhibition” (Cancers, 2023).

Tests used:
Test in all cases: Kinase panel
Type in all cases: biochemical
Conditions in all cases: read-out: % Residual Activity
ALK4(h) = target: T1, ALK4(h) (Homo sapiens, UniProt P36896)
T1 construct: purchased Eurofins (KinaseProfiler)
How it was run: (§1)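 Steps: profile rilpivirine against a broad kinase panel; determine IC50 by radioactive assay using ATP at the kinase-specific Km; convert IC50 to Ki by the Cheng–Prusoff relationship.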

CDK17/cyclinY(h) = target: T2, CDK17/cyclinY(h) (Homo sapiens, UniProt Q00537)
T2 construct: purchased Eurofins (KinaseProfiler)
How it was run: as §1

CDKL3(h) = target: T3, CDKL3(h) (Homo sapiens, UniProt Q8IVW4)
T3 construct: purchased Eurofins (KinaseProfiler)
How it was run: as §1

CaMKIß(h) = target: T4, CaMKIß(h) (Homo sapiens, UniProt Q6P2M8)
T4 construct: purchased Eurofins (KinaseProfiler)
How it was run: as §1

CaMKIγ(h) = target: T5, CaMKIγ(h) (Homo sapiens, UniProt Q96NX5)
T5 construct: purchased Eurofins (KinaseProfiler)
How it was run: as §1

CaMKIδ(h) = target: T6, CaMKIδ(h) (Homo sapiens, UniProt Q8IU85)
T6 construct: purchased Eurofins (KinaseProfiler)
How it was run: as §1

CaMKK2(h) = target: T7, CaMKK2(h) (Homo sapiens, UniProt Q96RR4)
T7 construct: purchased Eurofins (KinaseProfiler)
How it was run: as §1

DRAK1(h) = target: T8, DRAK1(h) (Homo sapiens, UniProt Q9UEE5)
T8 construct: purchased Eurofins (KinaseProfiler)
How it was run: as §1

EphA3(h) = target: T9, EphA3(h) (Homo sapiens, UniProt P29320)
T9 construct: purchased Eurofins (KinaseProfiler)
How it was run: as §1

EphA5(h) = target: T10, EphA5(h) (Homo sapiens, UniProt P54756)
T10 construct: purchased Eurofins (KinaseProfiler)
How it was run: as §1

EphB2(h) = target: T11, EphB2(h) (Homo sapiens, UniProt P29323)
T11 construct: purchased Eurofins (KinaseProfiler)
How it was run: as §1

EphB4(h) = target: T12, EphB4(h) (Homo sapiens, UniProt P54760)
T12 construct: purchased Eurofins (KinaseProfiler)
T12 sequence (P54760 16-987): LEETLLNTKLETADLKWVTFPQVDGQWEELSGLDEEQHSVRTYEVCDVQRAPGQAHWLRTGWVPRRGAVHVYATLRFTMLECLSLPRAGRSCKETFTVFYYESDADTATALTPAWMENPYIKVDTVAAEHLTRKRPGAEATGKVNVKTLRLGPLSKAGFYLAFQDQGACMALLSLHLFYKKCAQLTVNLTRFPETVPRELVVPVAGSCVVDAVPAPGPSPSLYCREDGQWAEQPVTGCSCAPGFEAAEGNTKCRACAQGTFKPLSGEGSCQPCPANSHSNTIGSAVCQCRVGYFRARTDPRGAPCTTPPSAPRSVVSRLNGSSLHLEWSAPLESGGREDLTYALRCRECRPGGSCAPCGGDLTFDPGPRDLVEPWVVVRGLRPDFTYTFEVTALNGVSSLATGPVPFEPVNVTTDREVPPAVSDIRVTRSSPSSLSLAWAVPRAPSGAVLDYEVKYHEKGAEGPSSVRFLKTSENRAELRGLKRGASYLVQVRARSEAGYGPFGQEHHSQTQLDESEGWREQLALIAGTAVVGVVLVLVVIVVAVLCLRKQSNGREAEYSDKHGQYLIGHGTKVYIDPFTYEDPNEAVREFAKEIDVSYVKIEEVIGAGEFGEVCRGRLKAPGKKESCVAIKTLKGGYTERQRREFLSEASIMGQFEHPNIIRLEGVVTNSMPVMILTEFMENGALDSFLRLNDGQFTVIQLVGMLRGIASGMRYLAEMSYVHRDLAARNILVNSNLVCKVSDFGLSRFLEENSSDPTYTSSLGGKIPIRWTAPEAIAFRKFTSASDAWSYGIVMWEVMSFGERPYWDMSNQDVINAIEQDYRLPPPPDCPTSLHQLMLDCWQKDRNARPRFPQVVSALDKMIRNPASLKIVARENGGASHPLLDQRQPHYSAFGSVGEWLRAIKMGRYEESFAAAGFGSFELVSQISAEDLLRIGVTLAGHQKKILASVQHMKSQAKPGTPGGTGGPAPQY
How it was run: as §1

ErbB2(h) = target: T13, ErbB2(h) (Homo sapiens, UniProt P04626)
T13 construct: purchased Eurofins (KinaseProfiler)
How it was run: as §1

Haspin(h) = target: T14, Haspin(h) (Homo sapiens, UniProt Q8TF76)
T14 construct: purchased Eurofins (KinaseProfiler)
How it was run: as §1

IGF-1R(h), activated = target: T15, IGF-1R(h), activated (Homo sapiens, UniProt P08069)
T15 construct: purchased Eurofins (KinaseProfiler)
How it was run: as §1

LATS2(h) = target: T16, LATS2(h) (Homo sapiens, UniProt Q9NRM7)
T16 construct: purchased Eurofins (KinaseProfiler)
How it was run: as §1

Lck(h) = target: T17, Lck(h) (Homo sapiens, UniProt P06239)
T17 construct: purchased Eurofins (KinaseProfiler)
How it was run: as §1

MKK6(h) = target: T18, MKK6(h) (Homo sapiens, UniProt P52564)
T18 construct: purchased Eurofins (KinaseProfiler)
How it was run: as §1

MLK2(h) = target: T19, MLK2(h) (Homo sapiens, UniProt Q02779)
T19 construct: purchased Eurofins (KinaseProfiler)
T19 sequence (Q02779 whole entry): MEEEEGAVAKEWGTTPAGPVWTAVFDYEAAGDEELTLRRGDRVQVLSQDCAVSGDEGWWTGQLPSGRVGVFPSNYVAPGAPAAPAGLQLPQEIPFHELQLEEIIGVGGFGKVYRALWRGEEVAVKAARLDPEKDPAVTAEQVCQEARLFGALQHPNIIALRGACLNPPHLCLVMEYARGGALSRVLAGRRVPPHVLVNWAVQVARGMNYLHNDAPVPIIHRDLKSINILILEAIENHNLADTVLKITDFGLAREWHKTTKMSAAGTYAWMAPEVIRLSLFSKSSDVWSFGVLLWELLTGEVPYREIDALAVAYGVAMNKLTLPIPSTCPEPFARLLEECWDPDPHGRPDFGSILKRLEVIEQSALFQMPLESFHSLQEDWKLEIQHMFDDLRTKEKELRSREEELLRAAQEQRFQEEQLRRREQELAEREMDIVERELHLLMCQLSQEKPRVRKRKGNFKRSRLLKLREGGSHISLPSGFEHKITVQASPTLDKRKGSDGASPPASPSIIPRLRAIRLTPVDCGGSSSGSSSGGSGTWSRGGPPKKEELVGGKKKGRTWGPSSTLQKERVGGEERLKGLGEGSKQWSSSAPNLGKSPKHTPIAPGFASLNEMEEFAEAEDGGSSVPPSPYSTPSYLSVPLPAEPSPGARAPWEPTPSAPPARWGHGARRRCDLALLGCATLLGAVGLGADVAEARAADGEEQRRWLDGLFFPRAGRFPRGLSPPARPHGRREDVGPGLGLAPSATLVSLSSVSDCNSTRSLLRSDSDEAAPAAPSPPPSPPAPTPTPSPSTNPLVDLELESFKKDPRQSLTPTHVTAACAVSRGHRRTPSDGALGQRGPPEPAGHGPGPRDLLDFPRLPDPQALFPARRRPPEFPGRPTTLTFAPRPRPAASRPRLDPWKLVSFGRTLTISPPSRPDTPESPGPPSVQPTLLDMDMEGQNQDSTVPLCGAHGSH
How it was run: as §1

MuSK(h) = target: T20, MuSK(h) (Homo sapiens, UniProt O15146)
T20 construct: purchased Eurofins (KinaseProfiler)
How it was run: as §1

NDR2(h) = target: T21, NDR2(h) (Homo sapiens, UniProt Q9Y2H1)
T21 construct: purchased Eurofins (KinaseProfiler)
How it was run: as §1

PDGFRα(D842V)(h) = target: T22, PDGFRα(D842V)(h) (Homo sapiens, UniProt P16234, D842V)
T22 construct: purchased Eurofins (KinaseProfiler)
How it was run: as §1

PDHK2(h) = target: T23, PDHK2(h) (Homo sapiens, UniProt Q15119)
T23 construct: purchased Eurofins (KinaseProfiler)
How it was run: as §1

[1] = target: PI3 Kinase (p110a(E545K)/p85a)(h) (Homo sapiens, UniProt P42336, E545K)
How it was run: as §1

[2] = target: T24, PI3 Kinase (p110a/p65a)(m) (Mus musculus, UniProt P42337)
T24 construct: purchased Eurofins (KinaseProfiler)
T24 sequence (P42337 whole entry): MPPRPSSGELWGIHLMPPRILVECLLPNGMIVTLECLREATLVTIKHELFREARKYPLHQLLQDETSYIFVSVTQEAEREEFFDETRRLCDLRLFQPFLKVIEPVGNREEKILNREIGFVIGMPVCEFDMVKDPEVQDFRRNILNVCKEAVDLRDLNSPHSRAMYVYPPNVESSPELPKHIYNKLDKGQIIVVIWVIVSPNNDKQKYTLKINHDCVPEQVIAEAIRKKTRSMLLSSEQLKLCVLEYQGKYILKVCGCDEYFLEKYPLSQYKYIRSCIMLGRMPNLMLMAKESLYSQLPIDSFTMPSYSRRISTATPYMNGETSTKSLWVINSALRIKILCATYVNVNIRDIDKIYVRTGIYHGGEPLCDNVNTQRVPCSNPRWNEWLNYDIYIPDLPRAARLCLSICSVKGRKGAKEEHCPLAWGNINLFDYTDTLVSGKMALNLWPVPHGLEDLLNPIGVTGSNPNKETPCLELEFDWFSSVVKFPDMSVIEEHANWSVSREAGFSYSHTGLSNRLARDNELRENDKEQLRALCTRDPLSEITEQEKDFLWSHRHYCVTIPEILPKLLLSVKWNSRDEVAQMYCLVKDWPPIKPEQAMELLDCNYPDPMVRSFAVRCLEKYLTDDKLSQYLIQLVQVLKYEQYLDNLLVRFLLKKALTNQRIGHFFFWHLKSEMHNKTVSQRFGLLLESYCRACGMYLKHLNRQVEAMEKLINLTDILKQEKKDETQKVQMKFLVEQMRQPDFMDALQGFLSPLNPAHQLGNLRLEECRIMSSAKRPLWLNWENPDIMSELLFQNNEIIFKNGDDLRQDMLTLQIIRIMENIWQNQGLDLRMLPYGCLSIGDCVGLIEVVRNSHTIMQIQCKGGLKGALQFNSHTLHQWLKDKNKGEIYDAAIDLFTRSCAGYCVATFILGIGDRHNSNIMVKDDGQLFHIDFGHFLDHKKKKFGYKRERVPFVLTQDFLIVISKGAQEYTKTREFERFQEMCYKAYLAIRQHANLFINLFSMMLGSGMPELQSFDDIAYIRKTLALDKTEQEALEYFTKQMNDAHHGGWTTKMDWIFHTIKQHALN
T24 sequence (P26450 1-571 partner limits assumed): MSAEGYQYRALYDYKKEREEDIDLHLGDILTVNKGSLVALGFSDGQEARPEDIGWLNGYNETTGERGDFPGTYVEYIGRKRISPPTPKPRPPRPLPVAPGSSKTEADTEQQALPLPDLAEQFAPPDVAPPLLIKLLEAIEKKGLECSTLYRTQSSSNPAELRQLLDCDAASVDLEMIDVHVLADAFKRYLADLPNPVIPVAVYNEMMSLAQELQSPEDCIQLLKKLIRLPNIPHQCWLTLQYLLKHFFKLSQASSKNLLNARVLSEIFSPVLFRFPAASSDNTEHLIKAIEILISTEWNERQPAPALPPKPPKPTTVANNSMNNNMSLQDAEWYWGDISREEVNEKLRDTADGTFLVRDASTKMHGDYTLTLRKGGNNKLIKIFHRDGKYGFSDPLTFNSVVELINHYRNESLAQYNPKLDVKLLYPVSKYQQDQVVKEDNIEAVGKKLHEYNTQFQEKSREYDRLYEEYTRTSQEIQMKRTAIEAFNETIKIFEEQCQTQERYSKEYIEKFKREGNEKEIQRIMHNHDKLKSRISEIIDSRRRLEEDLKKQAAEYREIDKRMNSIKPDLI
How it was run: as §1

[3] = target: PI3 Kinase (p110a/p85a)(h) (Homo sapiens, UniProt P42336)
How it was run: as §1

PKBα(h) = target: T25, PKBα(h) (Homo sapiens, UniProt P31749)
T25 construct: purchased Eurofins (KinaseProfiler)
How it was run: as §1

PRP4(h) = target: T26, PRP4(h) (Homo sapiens, UniProt Q13523)
T26 construct: purchased Eurofins (KinaseProfiler)
How it was run: as §1

Plk4(h) = target: T27, Plk4(h) (Homo sapiens, UniProt O00444)
T27 construct: purchased Eurofins (KinaseProfiler)
How it was run: as §1

SAPK2b(h) = target: T28, SAPK2b(h) (Homo sapiens, UniProt Q15759)
T28 construct: purchased Eurofins (KinaseProfiler)
How it was run: as §1

SGK(h) = target: T29, SGK(h) (Homo sapiens, UniProt O00141)
T29 construct: purchased Eurofins (KinaseProfiler)
T29 sequence (O00141 whole entry): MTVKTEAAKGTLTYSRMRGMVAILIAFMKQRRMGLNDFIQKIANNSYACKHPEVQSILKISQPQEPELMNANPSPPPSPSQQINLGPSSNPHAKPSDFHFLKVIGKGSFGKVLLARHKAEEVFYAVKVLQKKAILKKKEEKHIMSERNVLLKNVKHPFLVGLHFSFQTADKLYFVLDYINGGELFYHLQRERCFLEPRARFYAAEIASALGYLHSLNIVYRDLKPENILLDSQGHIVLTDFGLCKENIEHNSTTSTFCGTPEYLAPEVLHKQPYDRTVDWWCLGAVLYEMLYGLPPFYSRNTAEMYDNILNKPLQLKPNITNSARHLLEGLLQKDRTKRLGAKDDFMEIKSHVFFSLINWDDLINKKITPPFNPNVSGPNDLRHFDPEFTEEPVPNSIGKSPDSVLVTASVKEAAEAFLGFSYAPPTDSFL
How it was run: as §1

SLK(h) = target: T30, SLK(h) (Homo sapiens, UniProt Q9H2G2)
T30 construct: purchased Eurofins (KinaseProfiler)
How it was run: as §1

STK16(h) = target: T31, STK16(h) (Homo sapiens, UniProt O75716)
T31 construct: purchased Eurofins (KinaseProfiler)
T31 sequence (O75716 whole entry): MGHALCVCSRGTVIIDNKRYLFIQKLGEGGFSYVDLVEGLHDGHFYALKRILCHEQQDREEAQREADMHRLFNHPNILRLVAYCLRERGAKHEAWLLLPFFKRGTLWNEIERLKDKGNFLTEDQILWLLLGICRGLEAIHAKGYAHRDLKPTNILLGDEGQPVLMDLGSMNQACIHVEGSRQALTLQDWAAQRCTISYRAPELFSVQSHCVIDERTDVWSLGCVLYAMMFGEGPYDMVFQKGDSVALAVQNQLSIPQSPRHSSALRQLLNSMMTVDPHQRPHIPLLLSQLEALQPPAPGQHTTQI
How it was run: as §1

Snk(h) = target: T32, Snk(h) (Homo sapiens, UniProt Q9NYY3)
T32 construct: purchased Eurofins (KinaseProfiler)
How it was run: as §1

TGFBR1(h) = target: T33, TGFBR1(h) (Homo sapiens, UniProt P36897)
T33 construct: purchased Eurofins (KinaseProfiler)
How it was run: as §1

WNK2(h) = target: T34, WNK2(h) (Homo sapiens, UniProt Q9Y3S1)
T34 construct: purchased Eurofins (KinaseProfiler)
How it was run: as §1

ZAP-70(h) = target: T35, ZAP-70(h) (Homo sapiens, UniProt P43403)
T35 construct: purchased Eurofins (KinaseProfiler)
T35 sequence (P43403 whole entry): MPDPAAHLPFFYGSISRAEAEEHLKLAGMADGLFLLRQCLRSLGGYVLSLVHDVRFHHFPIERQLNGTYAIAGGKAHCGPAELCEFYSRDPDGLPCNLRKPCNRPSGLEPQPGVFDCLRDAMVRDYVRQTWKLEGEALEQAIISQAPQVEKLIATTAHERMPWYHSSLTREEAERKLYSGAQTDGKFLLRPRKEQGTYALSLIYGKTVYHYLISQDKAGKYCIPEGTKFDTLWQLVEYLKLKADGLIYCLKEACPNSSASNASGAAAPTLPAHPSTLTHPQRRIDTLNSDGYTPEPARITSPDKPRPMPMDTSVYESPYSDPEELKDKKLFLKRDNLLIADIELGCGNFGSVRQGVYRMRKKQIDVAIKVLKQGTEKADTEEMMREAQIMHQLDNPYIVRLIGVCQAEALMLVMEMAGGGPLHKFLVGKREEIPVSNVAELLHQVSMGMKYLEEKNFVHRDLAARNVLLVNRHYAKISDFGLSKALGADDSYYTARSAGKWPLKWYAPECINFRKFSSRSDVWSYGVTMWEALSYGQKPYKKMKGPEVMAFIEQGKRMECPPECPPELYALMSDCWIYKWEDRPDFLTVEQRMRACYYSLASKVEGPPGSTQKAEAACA
How it was run: as §1

mTOR(h) = target: T36, mTOR(h) (Homo sapiens, UniProt P42345)
T36 construct: purchased Eurofins (KinaseProfiler)
How it was run: as §1

Compound: Cc1cc(/C=C/C#N)cc(C)c1Nc1ccnc(Nc2ccc(C#N)cc2)n1 [rilpivirine, (E)-4-((4-((4-(2-cyanoethenyl)-2,6-dimethylphenyl)amino)pyrimidin-2-yl)amino)benzonitrile]
- remaining activity at 1 µM (ALK4(h)): 79%
- remaining activity at 1 µM (CDK17/cyclinY(h)): 78%
- remaining activity at 1 µM (CDKL3(h)): 58%
- remaining activity at 1 µM (CaMKIß(h)): 92%
- remaining activity at 1 µM (CaMKIγ(h)): 95%
- remaining activity at 1 µM (CaMKIδ(h)): 100%
- remaining activity at 1 µM (CaMKK2(h)): 109%
- remaining activity at 1 µM (DRAK1(h)): 76%
- remaining activity at 1 µM (EphA3(h)): 86%
- remaining activity at 1 µM (EphA5(h)): 79%
- remaining activity at 1 µM (EphB2(h)): 78%
- remaining activity at 1 µM (EphB4(h)): 86%
- remaining activity at 1 µM (ErbB2(h)): 116%
- remaining activity at 1 µM (Haspin(h)): 61%
- remaining activity at 1 µM (IGF-1R(h), activated): 99%
- remaining activity at 1 µM (LATS2(h)): 80%
- remaining activity at 1 µM (Lck(h)): 33%
- remaining activity at 1 µM (MKK6(h)): 94%
- remaining activity at 1 µM (MLK2(h)): 85%
- remaining activity at 1 µM (MuSK(h)): 96%
- remaining activity at 1 µM (NDR2(h)): 100%
- remaining activity at 1 µM (PDGFRα(D842V)(h)): 79%
- remaining activity at 1 µM (PDHK2(h)): 90%
- remaining activity at 1 µM [1]: 98%
- remaining activity at 1 µM [2]: 104%
- remaining activity at 1 µM [3]: 98%
- remaining activity at 1 µM (PKBα(h)): 80%
- remaining activity at 1 µM (PRP4(h)): 113%
- remaining activity at 1 µM (Plk4(h)): 85%
- remaining activity at 1 µM (SAPK2b(h)): 98%
- remaining activity at 1 µM (SGK(h)): 97%
- remaining activity at 1 µM (SLK(h)): 106%
- remaining activity at 1 µM (STK16(h)): 58%
- remaining activity at 1 µM (Snk(h)): 98%
- remaining activity at 1 µM (TGFBR1(h)): 103%
- remaining activity at 1 µM (WNK2(h)): 80%
- remaining activity at 1 µM (ZAP-70(h)): 97%
- remaining activity at 1 µM (mTOR(h)): 97%
